This is an account of results in patent publication US20240335431A1, “1-H-PYRROLO[2,3-c]PYRIDINE COMPOUNDS” (Acerta Pharma B.V., priority 2023, published 2024).

Structures are written as SMILES. Where two headings read alike, the source gives them in different places. Bounds are passed on as bounds.

The subject of one experiment is OCI-AML3 cells. As to the kind of experiment: Proliferation assay, OCI-AML3 (CellTiter-Glo, 7 days). The class given is cell-based, human. Summed up: (§1)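 Cells were seeded at line-specific low densities for linear growth, exposed to 3.16-fold serial compound dilutions at 0.1% DMSO, and incubated 7 days at 37 °C, 5% CO2. Viability was read by CellTiter-Glo 2.0 luminescence; IC50 came from one-site fits of % inhibition, normalized between DMSO-treated cells (100%) and a day-0 plate (0%).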

Another experiment concerns HEL cells. The experiment in a line: Proliferation assay, HEL control cell line (CellTiter-Glo, 7 days). It is filed as cell-based, human. In short, it runs like this: as §1
For the next experiment, the target named is hERG (Homo sapiens (Human), UniProt Q12809). As to the kind of experiment: hERG assay 2, QPatch II 48X, room temperature. It is filed as cell-based. The conditions noted are these: hERG DUO cell line, top 200 μM. The protocol:
Experiments were performed on the QPatch II 48X (Sophion Biosciences) high throughput patch clamp platform at room temperature and used single hole Qplates. hERG DUO cell line (BSys) was used. The internal patch clamp solution was KF 60 mM, KCl 70 mM, HEPES 10 mM, EGTA 10 mM, and 5 mM Mg ATP (pH7.2). After sealing and whole cell access was gained the external solution (NaCl 140 mM, KCl 4 mM, HEPES 10 mM, CaCl2 2 mM, MgCl2 1 mM, glucose 5 mM (pH 7.4) was applied twice to establish stable baseline currents. An industry standard +40/−40 mV voltage protocol was applied every 15 seconds. All compounds were tested in a 6-point cumulative assay (final DMSO concentration 0.4-2% depending on stock concentration of compounds). Compounds were dispensed from initial 10 mM or 50 mM DMSO stocks after which DMSO dilutions were undertaken with a top concentration of 200 μM tested. Solvent controls were run in all experiments in line with the DMSO % required. Only wells that passed acceptance criteria for this platform were used in this analysis (500 MegaOhm seal resistance and current size >0.2 nA). Analysis was completed in Prism Graphpad to complete a composite IC50, by plotting % inhibition versus log compound concentration and using a log(inhibitor) vs. response—Variable slope.

Another experiment has as its target muscarinic M2 receptor (Homo sapiens (Human), UniProt P08172). The experiment in a line: Muscarinic M2 receptor binding assay (assay 1). The conditions noted are these: [3H]AF-DX 384 2 nM, Cheng Prusoff. Summed up:
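Membrane homogenates (60 μg protein) were incubated with 2 nM [3H]AF-DX 384 for 60 min at 22° C in Tris-HCl pH 7.4 with NaCl, KCl, MgCl2 and EDTA; 1 μM atropine defined nonspecific binding. Filtration and scintillation counting gave percent inhibition of specific binding, with Ki by Cheng-Prusoff.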

Sequence of hERG (Q12809 whole entry): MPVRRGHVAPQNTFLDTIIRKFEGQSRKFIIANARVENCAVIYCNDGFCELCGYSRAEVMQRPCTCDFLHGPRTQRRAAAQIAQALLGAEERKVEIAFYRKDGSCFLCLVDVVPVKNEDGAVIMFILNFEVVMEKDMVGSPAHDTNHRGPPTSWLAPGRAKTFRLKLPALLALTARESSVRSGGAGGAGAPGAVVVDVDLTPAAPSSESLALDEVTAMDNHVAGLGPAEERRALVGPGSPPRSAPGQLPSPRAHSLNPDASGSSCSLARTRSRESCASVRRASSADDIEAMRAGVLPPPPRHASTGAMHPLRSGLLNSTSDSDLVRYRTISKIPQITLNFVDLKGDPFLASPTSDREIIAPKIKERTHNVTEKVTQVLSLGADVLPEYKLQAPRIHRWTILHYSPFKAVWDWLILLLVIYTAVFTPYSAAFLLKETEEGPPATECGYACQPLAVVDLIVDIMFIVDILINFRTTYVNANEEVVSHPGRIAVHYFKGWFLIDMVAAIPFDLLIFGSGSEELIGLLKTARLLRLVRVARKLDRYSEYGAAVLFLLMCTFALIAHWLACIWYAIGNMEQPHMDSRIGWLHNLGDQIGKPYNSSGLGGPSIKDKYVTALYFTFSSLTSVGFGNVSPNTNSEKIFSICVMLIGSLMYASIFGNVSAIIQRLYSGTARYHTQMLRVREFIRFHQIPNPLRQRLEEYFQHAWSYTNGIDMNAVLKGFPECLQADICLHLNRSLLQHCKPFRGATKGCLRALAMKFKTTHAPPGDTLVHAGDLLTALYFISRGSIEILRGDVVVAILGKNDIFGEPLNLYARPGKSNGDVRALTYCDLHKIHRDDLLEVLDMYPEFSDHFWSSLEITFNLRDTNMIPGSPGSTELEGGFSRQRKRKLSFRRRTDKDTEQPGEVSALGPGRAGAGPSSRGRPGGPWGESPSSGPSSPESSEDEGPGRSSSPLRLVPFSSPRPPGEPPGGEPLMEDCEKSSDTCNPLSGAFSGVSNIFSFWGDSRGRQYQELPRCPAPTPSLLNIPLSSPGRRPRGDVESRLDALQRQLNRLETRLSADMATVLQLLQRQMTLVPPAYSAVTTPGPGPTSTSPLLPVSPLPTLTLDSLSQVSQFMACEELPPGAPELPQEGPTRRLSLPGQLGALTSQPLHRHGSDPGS
Sequence of muscarinic M2 receptor (P08172 whole entry): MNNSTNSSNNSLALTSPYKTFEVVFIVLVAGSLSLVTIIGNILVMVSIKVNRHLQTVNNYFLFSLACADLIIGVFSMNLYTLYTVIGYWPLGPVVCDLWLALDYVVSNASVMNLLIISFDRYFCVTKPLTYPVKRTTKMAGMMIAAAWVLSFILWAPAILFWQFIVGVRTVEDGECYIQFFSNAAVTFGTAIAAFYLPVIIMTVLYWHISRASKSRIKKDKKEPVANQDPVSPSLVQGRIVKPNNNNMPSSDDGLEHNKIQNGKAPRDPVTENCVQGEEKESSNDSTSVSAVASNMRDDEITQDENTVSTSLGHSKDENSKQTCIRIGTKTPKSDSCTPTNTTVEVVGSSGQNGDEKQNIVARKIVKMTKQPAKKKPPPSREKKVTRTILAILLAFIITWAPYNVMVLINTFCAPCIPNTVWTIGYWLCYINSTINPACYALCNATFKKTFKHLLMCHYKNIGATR

On to `Cc1c(C(=O)C2CCN(C(=O)[C@@H]3CCC(C)(C)N3)CC2)c2ccncc2n1-c1ccc(F)cc1C(=O)N(C(C)C)C(C)C` (single isomer, unassigned) [Compound 56-2], for which the IC50 is 0.047 µM in the experiment with OCI-AML3 cells (Homo sapiens, OCI-AML-3, 168 h); greater than 10 µM in the experiment on HEL cells; 138 µM against hERG. The same molecule came in with a Ki on muscarinic M2 receptor greater than 100 µM.
`CCN(C(=O)c1cc(F)ccc1-n1c(C)c(C(=O)C2CCN(C(=O)[C@H]3NC[C@@H]4C[C@@H]43)CC2)c2ccncc21)C(C)C` (single isomer, unassigned) [Example 48-2]: the IC50 is 0.023 µM in the experiment with OCI-AML3 cells, greater than 10 µM with HEL cells and greater than 200 µM against hERG. Besides, the affinity on muscarinic M2 receptor corresponds to a Ki of 19 µM.
Consider `Cc1c(C(=O)C2CCN(C(=O)[C@H]3NC[C@@H]4C[C@@H]43)CC2)c2ccncc2n1-c1ccc(F)cc1C(=O)N(CC(F)(F)F)C(C)C` (single isomer, unassigned) [Example 51-2], for which the IC50 is 0.037 µM with OCI-AML3 cells (Homo sapiens, OCI-AML-3, 168 h); greater than 10 µM in the experiment on HEL cells; greater than 200 µM against hERG. The molecule also came in with an inhibition constant Ki on muscarinic M2 receptor of 30.7 µM.
The corresponding values for `Cc1c(C(=O)C2CCN(C(=O)[C@H]3NC[C@@H]4C[C@@H]43)CC2)c2ccncc2n1-c1ccc(F)cc1C(=O)N(C(C)C)C(C)C` (single isomer, unassigned) [Example 55-2] are 0.029 µM, greater than 10 µM, 82.3 µM and 51.9 µM.
For `CC(C)N(C(=O)c1cc(F)ccc1-n1cc(C(=O)C2CN(C(=O)[C@H]3N[C@H]4C[C@@H]3[C@@H](F)C4)C2)c2ccncc21)C(C)C` [Example 7, 5-Fluoro-2-(3-(1-((1S,3S,4S,5S)-5-fluoro-2-azabicyclo[2.2.1]heptane-3-carbonyl)azetidine-3-carbonyl)-1H-pyrrolo[2,3-c]pyridin-1-yl)-N,N-diisopropylbenzamide], the IC50 with OCI-AML3 cells (Homo sapiens, OCI-AML-3, 168 h) was 0.115 µM; with HEL cells (Homo sapiens, HEL, 168 h), greater than 10 µM; against hERG, 150 µM. In addition, the affinity at muscarinic M2 receptor corresponds to a Ki of 14.4 µM.
The corresponding values for `CC(C)c1ncccc1-c1cc(F)ccc1-n1cc(C(=O)C2CN(C(=O)[C@H]3N[C@@H]4CC[C@H]3C4)C2)c2ccncc21` [Example 10, (1-((1R,3S,4S)-2-Azabicyclo[2.2.1]heptane-3-carbonyl)azetidin-3-yl)(1-(4-fluoro-2-(2-isopropylpyridin-3-yl)phenyl)-1H-pyrrolo[2,3-c]pyridin-3-yl)methanone] are 0.024 µM, greater than 10 µM, 79.1 µM and 10.5 µM.
As for `CC(C)N(C(=O)c1cc(F)ccc1-n1cc(C(=O)C2CCN(C(=O)[C@@H]3CCC(C)(C)N3)CC2)c2ccncc21)C(C)C` [Example 27, (S)-2-(3-(1-(5,5-Dimethylpyrrolidine-2-carbonyl)piperidine-4-carbonyl)-1H-pyrrolo[2,3-c]pyridin-1-yl)-5-fluoro-N,N-diisopropylbenzamide], the IC50 with OCI-AML3 cells (Homo sapiens, OCI-AML-3, 168 h) was 0.034 µM; with HEL cells (Homo sapiens, HEL, 168 h), greater than 10 µM. The same molecule gave a Ki at muscarinic M2 receptor of 1.6 µM.
Turning to `CCN(C(=O)c1cc(F)ccc1-n1cc(C(=O)C2CCN(C(=O)[C@H]3NC[C@@H]4C[C@@H]43)CC2)c2ccncc21)C(C)C` [Example 28, 2-(3-(1-((1S,2S,5R)-3-Azabicyclo[3.1.0]hexane-2-carbonyl)piperidine-4-carbonyl)-1H-pyrrolo[2,3-c]pyridin-1-yl)-N-ethyl-5-fluoro-N-isopropylbenzamide], the IC50 was greater than 10 µM in the experiment with HEL cells (Homo sapiens, HEL, 168 h) and greater than 200 µM against hERG. For the same molecule, the Ki on muscarinic M2 receptor was determined as 0.4 µM.
The corresponding values for `CCN(C(=O)c1cc(F)ccc1-n1cc(C(=O)C2CCN(C(=O)[C@H]3N[C@@H]4CC[C@H]3C4)CC2)c2ccncc21)C(C)C` [Example 31, 2-(3-(1-((1R,3S,4S)-2-Azabicyclo[2.2.1]heptane-3-carbonyl)piperidine-4-carbonyl)-1H-pyrrolo[2,3-c]pyridin-1-yl)-N-ethyl-5-fluoro-N-isopropylbenzamide] are greater than 10 µM, greater than 200 µM and 0.1 µM.
Consider `C[C@@H]1CCC[C@H](C)N1C(=O)c1cc(F)ccc1-n1cc(C(=O)C2CCN(C(=O)[C@H]3N[C@@H]4CC[C@H]3C4)CC2)c2ccncc21` [Example 33, (1-((1R,3S,4S)-2-Azabicyclo[2.2.1]heptane-3-carbonyl)piperidin-4-yl)(1-(2-((2R,6S)-2,6-dimethylpiperidine-1-carbonyl)-4-fluorophenyl)-1H-pyrrolo[2,3-c]pyridin-3-yl)methanone], for which the IC50 was 0.207 µM in the experiment with OCI-AML3 cells (Homo sapiens, OCI-AML-3, 168 h) and greater than 10 µM in the experiment with HEL cells (Homo sapiens, HEL, 168 h). In addition, on muscarinic M2 receptor, affinity was put at a Ki of 0.3 µM.
In the case of `CC(C)n1nccc1-c1cc(F)ccc1-n1cc(C(=O)C2CCN(C(=O)[C@H]3N[C@@H]4CC[C@H]3C4)CC2)c2ccncc21` [Example 36, (1-((1R,3S,4S)-2-Azabicyclo[2.2.1]heptane-3-carbonyl)piperidin-4-yl)(1-(4-fluoro-2-(1-isopropyl-1H-pyrazol-5-yl)phenyl)-1H-pyrrolo[2,3-c]pyridin-3-yl)methanone], the IC50 is greater than 10 µM with HEL cells (Homo sapiens, HEL, 168 h) and 36.5 µM on hERG. Affinity at muscarinic M2 receptor was put at a Ki of 1.2 µM.
In the same order, the values of `CC(C)c1ncncc1-c1cc(F)ccc1-n1cc(C(=O)C2CCN(C(=O)[C@H]3N[C@@H]4CC[C@H]3C4)CC2)c2ccncc21` [Example 37, (1-((1R,3S,4S)-2-Azabicyclo[2.2.1]heptane-3-carbonyl)piperidin-4-yl)(1-(4-fluoro-2-(4-isopropylpyrimidin-5-yl)phenyl)-1H-pyrrolo[2,3-c]pyridin-3-yl)methanone] are greater than 10 µM, greater than 200 µM and 0.3 µM.
The corresponding values for `CC(C)c1ncccc1-c1cc(F)ccc1-n1cc(C(=O)C2CCN(C(=O)[C@H]3N[C@@H]4CC[C@H]3C4)CC2)c2ccncc21` [Example 38, (1-((1R,3S,4S)-2-Azabicyclo[2.2.1]heptane-3-carbonyl)piperidin-4-yl)(1-(4-fluoro-2-(2-isopropylpyridin-3-yl)phenyl)-1H-pyrrolo[2,3-c]pyridin-3-yl)methanone] are greater than 10 µM, 26 µM and 0.3 µM.
Regarding `CC(C)c1ncsc1-c1cc(F)ccc1-n1cc(C(=O)C2CCN(C(=O)[C@H]3N[C@@H]4CC[C@H]3C4)CC2)c2ccncc21.O=CO` [Example 42, (1-((1R,3S,4S)-2-Azabicyclo[2.2.1]heptane-3-carbonyl)piperidin-4-yl)(1-(4-fluoro-2-(4-isopropylthiazol-5-yl)phenyl)-1H-pyrrolo[2,3-c]pyridin-3-yl)methanone 1·formic acid], the IC50 with OCI-AML3 cells (Homo sapiens, OCI-AML-3, 168 h) was 0.076 µM; in the experiment with HEL cells (Homo sapiens, HEL, 168 h), greater than 10 µM. At muscarinic M2 receptor, the Ki is 0.5 µM.
For `CC(C)N(C(=O)c1cc(F)ccc1-n1cc(C(=O)C2CCN(C(=O)[C@H]3N[C@@H]4CC[C@H]3C4)CC2)c2c(F)cncc21)C(C)C.O=CO` [Example 44, 2-(3-(1-((1R,3S,4S)-2-Azabicyclo[2.2.1]heptane-3-carbonyl)piperidine-4-carbonyl)-4-fluoro-1H-pyrrolo[2,3-c]pyridin-1-yl)-5-fluoro-N,N-diisopropylbenzamide 1·formic acid], the IC50 in the experiment with OCI-AML3 cells (Homo sapiens, OCI-AML-3, 168 h) is 0.117 µM; with HEL cells (Homo sapiens, HEL, 168 h) it was greater than 10 µM. In addition, the Ki on muscarinic M2 receptor was 2.8 µM.
Consider `CCN(C(=O)c1cc(F)ccc1-n1c(C)c(C(=O)C2CCN(C(=O)[C@H]3N[C@@H]4CC[C@H]3C4)CC2)c2ccncc21)C(C)C` [Example 46, 2-(3-(1-((1R,3S,4S)-2-Azabicyclo[2.2.1]heptane-3-carbonyl)piperidine-4-carbonyl)-2-methyl-1H-pyrrolo[2,3-c]pyridin-1-yl)-N-ethyl-5-fluoro-N-isopropylbenzamide], for which the IC50 in the experiment on HEL cells (Homo sapiens, HEL, 168 h) is greater than 10 µM; at hERG it was greater than 200 µM. The molecule also had an inhibition constant (Ki) on muscarinic M2 receptor of 7.1 µM.
Consider `Cc1c(C(=O)C2CCN(C(=O)[C@H]3NC[C@@H]4C[C@@H]43)CC2)c2ccncc2n1-c1ccc(F)cc1-c1cnccc1C(C)C` [Example 54, (1-((1S,2S,5R)-3-Azabicyclo[3.1.0]hexane-2-carbonyl)piperidin-4-yl)(1-(4-fluoro-2-(4-isopropylpyridin-3-yl)phenyl)-2-methyl-1H-pyrrolo[2,3-c]pyridin-3-yl)methanone], for which the half-inhibitory concentration (IC50) with OCI-AML3 cells (Homo sapiens, OCI-AML-3, 168 h) was 0.043 µM; in the experiment with HEL cells (Homo sapiens, HEL, 168 h), greater than 10 µM. Besides, the Ki on muscarinic M2 receptor is 3.5 µM.
